In patent US6613942B1 (Novo Nordisk A/S, priority 1997, dated 2003):

Target: rat liver receptor (Rattus norvegicus, UniProt P30082)
Details: literature, Bioorganic and Medicinal Chemistry Letters 2(9):915-918; cited from earlier work

Chain of rat liver receptor (P30082 27-485): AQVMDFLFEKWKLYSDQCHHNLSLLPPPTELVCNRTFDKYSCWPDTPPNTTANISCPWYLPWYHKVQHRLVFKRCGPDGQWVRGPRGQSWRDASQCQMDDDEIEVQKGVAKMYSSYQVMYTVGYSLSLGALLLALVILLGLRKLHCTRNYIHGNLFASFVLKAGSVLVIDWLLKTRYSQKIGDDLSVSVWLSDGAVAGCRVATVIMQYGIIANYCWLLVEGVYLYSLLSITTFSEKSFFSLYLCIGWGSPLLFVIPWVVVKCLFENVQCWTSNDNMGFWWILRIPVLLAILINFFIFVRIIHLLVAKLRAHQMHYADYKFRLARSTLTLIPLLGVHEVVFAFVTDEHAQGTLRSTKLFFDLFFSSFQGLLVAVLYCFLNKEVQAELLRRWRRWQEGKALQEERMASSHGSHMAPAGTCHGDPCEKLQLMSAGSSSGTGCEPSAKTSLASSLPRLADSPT

In the case of `CN(C)CCCN(C)c1nc2cc(Cl)c(Cl)cc2nc1C=Cc1ccccc1` [(2-styryl-3-[3-(dimethylamino)propylmethyl-amino]-6,7-dichloroquinoxaline], the “displacement of glucagon from the rat liver receptor” value is given as “displace glucagon from the rat liver receptor”.

Tested on: not given
Details: not given

Compared with `COc1cc(NC(=O)COc2ccc(OC(F)(F)F)cc2)ccc1/C=N/NC(=O)c1ccc(O)c(Cl)c1` [Example 804], `COc1cc(/C=N/NC(=O)c2ccc(O)c(Cl)c2)ccc1NC(=O)COc1ccc(OC(F)(F)F)cc1` [Example 806, N-{4-[(3-Chloro-4-hydroxybenzoyl)hydrazonomethyl]-2-methoxyphenyl}-2-(4-trifluoromethoxyphenoy)acetamide] is lower in melting point: 235 to 236.5 °C for the first, 216 to 218 °C for the second.

First: COc1cc(NC(=O)c2ccc3ccccc3n2)ccc1/C=N/NC(=O)c1ccc(O)c(Cl)c1 [Example 805, Quinoline-2-carboxylic Acid (4-[(3-Chloro-4-hydroxybenzoyl)hydrazonomethyl]-3-methoxyphenyl}amide]
Second: COc1cc(/C=N/NC(=O)c2ccc(O)c(Cl)c2)ccc1NC(=O)c1ccc2ccccc2n1 [Example 807, Quinoline-2-carboxylic Acid {4-[(3-Chloro-4-hydroxybenzoyl)hydrazonomethyl]-2-methoxyphenyl}amide]
The melting point of the first is higher: 236 to 238 °C for the first, 159 to 162 °C for the second.

Compared with `CCN(CC)CCN(CCOc1ccc(/C=N/NC(=O)c2ccc(O)c(Cl)c2)c2ccccc12)Cc1ccc(OC(F)(F)F)cc1` [Example 143, 3-Chloro-4-hydroxybenzoic Acid {4-[2-[N′-(2-N,N-Diethylaminoethyl)-N′-(4-trifluoromethoxy-benzylamino)]]ethoxy-1-naphthylmethylene}hydrazide], `Nc1cc(C(=O)N/N=C/c2ccc(OCC(=O)N[C@H]3CCN(Cc4ccccc4)C3)c3ccccc23)ccc1O` [Example 797, (S)-2-{4-[(3-Amino-4-hydroxybenzoyl)hydrazonomethyl]naphthyl-1-yloxy}-N-(1-benzylpyrrolidin-3-yl)acetamide] is higher in melting point: 134 to 136 °C for the first, 192 to 193 °C for the second.

Compared with `COc1cc(OCC(=O)NC2CCN(Cc3ccccc3)C2)ccc1/C=N/NC(=O)c1ccc(O)c(N)c1` [Example 794, (R)-2-{4-[(3-Amino-4-hydroxybenzoyl)hydrazonomethyl]-3-methoxyphenoxy}-N-(1-benzylpyrrolidin-3-yl)acetamide], `Nc1cc(C(=O)N/N=C/c2ccc(OCC(=O)N[C@@H]3CCN(Cc4ccccc4)C3)c3ccccc23)ccc1O` [Example 795, (R)-2-{4-[(3-Amino-4-hydroxybenzoyl)hydrazonomethyl]naphthyl-1-yloxy}-N-(1-benzylpyrrolidin-3-yl)acetamide] is higher in melting point: 157 to 160 °C for the first, 187 to 192 °C for the second.

First: COc1cc(OCCN2CCc3ccccc3C2)ccc1/C=N/NC(=O)c1ccc(O)c(N)c1 [Example 792, 3-Amino-4-hydroxybenzoic Acid {4-[2-(1,2,3,4-Tetrahydro-isoquinolin-2-yl)ethoxy]-2-methoxybenzylidene}hydrazide]
Second: COc1cc(NC(=O)COc2ccc(Cl)cc2)ccc1/C=N/NC(=O)c1ccc(O)c(Cl)c1 [Example 808, N-(4-[(3-Chloro-4-hydroxybenzoyl)hydrazonomethyl]-3-methoxyphenyl}-2-(4-chlorophenoxy)acetamide]
The melting point of the first is lower: 162 to 164 °C for the first, 216 to 218 °C for the second.

Work on `COc1cc(/C=N/NC(=O)c2ccc(O)c(N)c2)cc(OC)c1OCc1ccc(C(C)C)cc1` [Example 793, 3-Amino-4-hydroxybenzoic Acid [4-(4-Isopropylbenzyloxy)-3,5-dimethoxybenzylidene]-hydrazide] yielded a melting point of 174 to 175 °C.
